Measured values published in article PMC9253107, “Engineering of ultraID, a compact and hyperactive enzyme for proximity-dependent biotinylation in living cells” (Communications Biology, 2022).

Molecular target: T1, microID (BioID2 [2-171]); with L41P = ultraID (Aquifex aeolicus, UniProt O66837, R40G/L41P)
T1 construct: gene birA; pET22b, E. coli BL21(DE3), IMAC purified
Assay: ELISA-based biotinylation assay, streptavidin-alkaline phosphatase
Format: biochemical
Details: 50 µM biotin, 2.5 mM ATP, 5 mM MgCl2, pH 7.5, 37 °C, 10 min; acceptor human serum albumin

T1 sequence (O66837 entry or part of it R40G/L41P): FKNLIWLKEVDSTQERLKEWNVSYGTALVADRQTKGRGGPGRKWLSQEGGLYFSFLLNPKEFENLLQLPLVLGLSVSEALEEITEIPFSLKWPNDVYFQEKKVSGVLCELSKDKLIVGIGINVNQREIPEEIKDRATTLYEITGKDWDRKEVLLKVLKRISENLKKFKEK

O=C(O)CCCC[C@@H]1SC[C@@H]2NC(=O)N[C@@H]21 [biotin]
ELISA-based biotinylation assay, streptavidin-alkaline phosphatase: combined R40G/L41P mutations showed the highest activity of all tested variants
